Experimental findings from patent US9340590B2 (priority 2011, dated 2016) are described below.

What all share (test): cell-based
The target in experiment [1] is hNav1.7 (Homo sapiens, UniProt Q15858). It is filed as cell-based. The conditions noted are these: IonWorks Quattro, use-dependent protocol, hNav1.7; read-out: IWQ Use Nav1.7. In general terms: Patch clamp records ionic current or voltage across a cell membrane.
Experiment [2] addresses hNav1.5 (Homo sapiens, UniProt Q14524). The conditions noted are these: IonWorks Quattro, use-dependent protocol, hNav1.5; read-out: IWQ Use Nav1.5.
Experiment [3] addresses hNav1.3 (Homo sapiens, UniProt Q9NY46). To be noted: IonWorks Quattro, use-dependent protocol, hNav1.3; read-out: IWQ Use Nav1.3.

pIC50: −log10 of the molar value. Positions of bridges follow the written chain, without caps; N, C: chain ends. Non-standard residues stand in square brackets, D forms with d. Residues, ends and D or L forms follow the SMILES beside them. Phe(3,4-(OMe)2) = COc1ccc(C[C@H](N)C(=O)O)cc1OC; Phe(3,4-Cl2) = N[C@@H](Cc1ccc(Cl)c(Cl)c1)C(=O)O; Bpa = N[C@@H](Cc1ccc(C(=O)c2ccccc2)cc1)C(=O)O; Gly(cPent) = N[C@H](C(=O)O)C1CCCC1; Chg = N[C@H](C(=O)O)C1CCCCC1

Sequence of hNav1.3 (Q9NY46 whole entry, looked up): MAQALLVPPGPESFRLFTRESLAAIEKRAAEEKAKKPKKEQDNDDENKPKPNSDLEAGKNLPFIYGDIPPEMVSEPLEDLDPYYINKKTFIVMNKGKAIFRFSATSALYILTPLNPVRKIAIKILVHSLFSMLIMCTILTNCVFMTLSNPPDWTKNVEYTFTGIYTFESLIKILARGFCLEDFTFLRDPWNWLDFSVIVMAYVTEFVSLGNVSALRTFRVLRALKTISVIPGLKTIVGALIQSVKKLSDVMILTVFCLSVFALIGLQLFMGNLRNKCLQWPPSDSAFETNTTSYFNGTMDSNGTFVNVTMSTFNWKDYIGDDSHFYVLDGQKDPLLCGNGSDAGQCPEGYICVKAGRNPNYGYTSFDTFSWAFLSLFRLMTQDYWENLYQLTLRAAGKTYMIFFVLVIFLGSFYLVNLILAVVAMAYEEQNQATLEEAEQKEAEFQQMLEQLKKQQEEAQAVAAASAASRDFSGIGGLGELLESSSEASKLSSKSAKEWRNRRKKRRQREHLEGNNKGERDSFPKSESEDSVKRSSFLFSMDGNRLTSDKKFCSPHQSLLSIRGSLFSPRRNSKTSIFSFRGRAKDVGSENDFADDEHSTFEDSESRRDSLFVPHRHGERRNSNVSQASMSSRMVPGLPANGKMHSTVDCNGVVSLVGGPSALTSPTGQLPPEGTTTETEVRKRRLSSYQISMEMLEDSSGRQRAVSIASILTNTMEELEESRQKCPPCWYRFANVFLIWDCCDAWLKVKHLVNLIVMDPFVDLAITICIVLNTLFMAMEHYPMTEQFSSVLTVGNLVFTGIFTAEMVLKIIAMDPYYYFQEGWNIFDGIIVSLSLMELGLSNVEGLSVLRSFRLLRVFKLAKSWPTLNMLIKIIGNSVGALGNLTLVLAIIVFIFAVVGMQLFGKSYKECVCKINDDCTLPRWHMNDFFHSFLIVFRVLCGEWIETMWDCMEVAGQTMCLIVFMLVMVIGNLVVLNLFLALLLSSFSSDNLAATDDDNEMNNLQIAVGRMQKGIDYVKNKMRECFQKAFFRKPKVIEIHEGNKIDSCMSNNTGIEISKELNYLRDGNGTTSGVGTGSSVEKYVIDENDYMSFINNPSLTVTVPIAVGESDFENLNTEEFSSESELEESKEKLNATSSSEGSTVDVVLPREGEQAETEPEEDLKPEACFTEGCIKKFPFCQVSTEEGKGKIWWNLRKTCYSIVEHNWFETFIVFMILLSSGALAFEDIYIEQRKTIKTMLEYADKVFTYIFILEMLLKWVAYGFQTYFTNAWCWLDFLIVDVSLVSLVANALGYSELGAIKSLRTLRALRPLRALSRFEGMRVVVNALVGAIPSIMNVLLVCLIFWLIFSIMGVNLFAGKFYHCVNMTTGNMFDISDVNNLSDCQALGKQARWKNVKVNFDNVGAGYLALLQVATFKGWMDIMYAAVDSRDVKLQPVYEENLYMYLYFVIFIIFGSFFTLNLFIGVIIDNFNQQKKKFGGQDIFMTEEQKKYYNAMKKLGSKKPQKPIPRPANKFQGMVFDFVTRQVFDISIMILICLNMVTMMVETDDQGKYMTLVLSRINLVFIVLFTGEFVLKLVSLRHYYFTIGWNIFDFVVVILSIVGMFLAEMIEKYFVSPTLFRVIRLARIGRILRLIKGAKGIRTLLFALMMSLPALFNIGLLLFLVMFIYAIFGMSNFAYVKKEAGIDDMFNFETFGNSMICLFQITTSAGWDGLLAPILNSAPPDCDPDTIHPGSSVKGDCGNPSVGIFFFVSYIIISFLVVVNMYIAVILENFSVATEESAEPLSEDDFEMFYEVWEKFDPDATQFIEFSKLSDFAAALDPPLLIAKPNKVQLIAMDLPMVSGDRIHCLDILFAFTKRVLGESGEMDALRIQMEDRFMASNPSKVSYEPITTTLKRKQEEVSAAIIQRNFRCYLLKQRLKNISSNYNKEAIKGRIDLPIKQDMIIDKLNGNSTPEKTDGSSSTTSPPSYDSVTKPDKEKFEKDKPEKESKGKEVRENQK
Sequence of hNav1.5 (Q14524 whole entry, looked up): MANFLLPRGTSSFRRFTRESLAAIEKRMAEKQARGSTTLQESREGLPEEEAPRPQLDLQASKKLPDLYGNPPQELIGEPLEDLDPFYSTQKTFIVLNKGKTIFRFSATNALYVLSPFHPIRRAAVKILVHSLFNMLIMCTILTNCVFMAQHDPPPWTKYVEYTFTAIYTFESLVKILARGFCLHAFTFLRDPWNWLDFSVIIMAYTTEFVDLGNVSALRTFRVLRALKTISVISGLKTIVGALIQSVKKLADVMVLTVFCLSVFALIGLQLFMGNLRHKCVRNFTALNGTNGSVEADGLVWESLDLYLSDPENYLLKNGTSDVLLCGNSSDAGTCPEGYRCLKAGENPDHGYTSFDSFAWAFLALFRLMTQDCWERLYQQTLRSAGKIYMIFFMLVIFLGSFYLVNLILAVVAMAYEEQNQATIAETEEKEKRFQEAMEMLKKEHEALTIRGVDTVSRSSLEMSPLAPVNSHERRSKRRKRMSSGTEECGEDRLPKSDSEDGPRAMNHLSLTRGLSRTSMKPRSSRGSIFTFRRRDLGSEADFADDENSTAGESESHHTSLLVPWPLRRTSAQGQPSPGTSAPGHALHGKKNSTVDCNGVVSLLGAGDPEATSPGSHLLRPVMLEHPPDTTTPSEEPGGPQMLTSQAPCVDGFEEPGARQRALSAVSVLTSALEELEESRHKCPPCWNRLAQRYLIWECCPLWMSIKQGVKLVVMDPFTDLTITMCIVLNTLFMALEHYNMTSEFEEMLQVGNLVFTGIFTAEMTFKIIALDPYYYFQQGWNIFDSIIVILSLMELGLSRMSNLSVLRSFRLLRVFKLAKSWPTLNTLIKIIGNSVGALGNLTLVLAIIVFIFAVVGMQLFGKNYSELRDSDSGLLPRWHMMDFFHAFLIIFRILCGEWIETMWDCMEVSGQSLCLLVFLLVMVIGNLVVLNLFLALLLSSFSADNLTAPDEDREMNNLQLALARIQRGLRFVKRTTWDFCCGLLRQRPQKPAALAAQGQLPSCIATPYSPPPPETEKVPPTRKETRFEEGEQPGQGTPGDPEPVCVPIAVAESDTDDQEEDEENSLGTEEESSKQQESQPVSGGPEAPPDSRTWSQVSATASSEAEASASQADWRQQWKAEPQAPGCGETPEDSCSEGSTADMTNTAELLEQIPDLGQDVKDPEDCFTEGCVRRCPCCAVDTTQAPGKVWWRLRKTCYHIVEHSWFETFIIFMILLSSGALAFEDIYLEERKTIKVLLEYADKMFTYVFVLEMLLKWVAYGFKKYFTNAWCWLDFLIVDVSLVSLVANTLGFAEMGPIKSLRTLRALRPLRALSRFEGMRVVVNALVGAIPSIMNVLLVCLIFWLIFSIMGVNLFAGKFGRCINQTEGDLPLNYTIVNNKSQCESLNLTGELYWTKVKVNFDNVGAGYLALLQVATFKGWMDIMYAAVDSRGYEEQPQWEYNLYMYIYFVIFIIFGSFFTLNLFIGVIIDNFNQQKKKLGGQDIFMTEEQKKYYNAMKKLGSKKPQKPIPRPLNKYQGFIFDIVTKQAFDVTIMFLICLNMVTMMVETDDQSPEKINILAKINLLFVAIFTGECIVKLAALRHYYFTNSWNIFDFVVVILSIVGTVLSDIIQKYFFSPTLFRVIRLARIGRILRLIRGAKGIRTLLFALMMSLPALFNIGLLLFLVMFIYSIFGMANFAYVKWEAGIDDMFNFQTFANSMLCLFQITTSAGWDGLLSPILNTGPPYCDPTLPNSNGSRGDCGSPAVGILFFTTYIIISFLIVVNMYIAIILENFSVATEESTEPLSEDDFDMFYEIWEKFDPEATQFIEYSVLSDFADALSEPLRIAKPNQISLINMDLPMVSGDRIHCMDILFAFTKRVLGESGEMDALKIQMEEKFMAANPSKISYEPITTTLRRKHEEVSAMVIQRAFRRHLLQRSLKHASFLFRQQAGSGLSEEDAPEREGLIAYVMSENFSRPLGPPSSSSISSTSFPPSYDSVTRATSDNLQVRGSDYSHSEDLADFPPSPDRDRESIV

Take `CC[C@H](C)[C@@H]1NC(=O)[C@@H]2CSSC[C@@H]3NC(=O)[C@H](C(C)C)NC(=O)[C@H](CC(C)C)NC(=O)[C@H](CC(N)=O)NC(=O)[C@@H]4CCCN4C(=O)[C@H](CCCNC(=N)N)NC(=O)[C@H](CSSC[C@H](NC(=O)[C@@H](N)CC(=O)O)C(=O)N[C@@H](CC(C)C)C(=O)NCC(=O)N[C@@H](C4CCCC4)C(=O)N[C@@H](Cc4ccccc4)C(=O)N[C@@H](CCCNC(=N)N)C(=O)N[C@@H](CCCCN)C(=O)N2)NC(=O)[C@H](CSSC[C@@H](C(=O)N[C@@H](CCCCN)C(=O)N[C@@H](Cc2ccc(O)cc2)C(=O)N[C@H](C(=O)N[C@@H](Cc2ccccc2)C(N)=O)C(C)C)NC(=O)[C@H](Cc2c[nH]c4ccccc24)NC(=O)[C@H](CCCCN)NC(=O)[C@H](Cc2c[nH]cn2)NC(=O)[C@H]([C@@H](C)O)NC(=O)[C@H](CCCNC(=N)N)NC(=O)[C@H](CO)NC3=O)NC(=O)[C@H](CCCCN)NC(=O)[C@H](CC(=O)O)NC(=O)[C@H](CC(N)=O)NC(=O)[C@H](CC(=O)O)NC(=O)[C@@H]2CCCN2C1=O` [compound 615] (H-DCLG[Gly(cPent)]FRKCIPDNDKCCRPNLVCSRTHKWCKYVF-NH2; disulfide 2-17, 9-23, 16-30): the pIC50 is 7.46 in experiment [1], 5.25 in experiment [2] and 6.92 in experiment [3].
Take `CC[C@H](C)[C@@H]1NC(=O)[C@@H]2CSSC[C@@H]3NC(=O)[C@H](C(C)C)NC(=O)[C@H](CC(C)C)NC(=O)[C@H](CC(N)=O)NC(=O)[C@@H]4CCCN4C(=O)[C@H](CCCNC(=N)N)NC(=O)[C@H](CSSC[C@H](NC(=O)[C@@H](N)CC(=O)O)C(=O)N[C@@H](CC(C)C)C(=O)NCC(=O)N[C@@H](C4CCCCC4)C(=O)N[C@@H](Cc4ccccc4)C(=O)N[C@@H](CCCNC(=N)N)C(=O)N[C@@H](CCCCN)C(=O)N2)NC(=O)[C@H](CSSC[C@@H](C(=O)N[C@@H](CCCCN)C(=O)N[C@@H](Cc2ccc(O)cc2)C(=O)N[C@H](C(=O)N[C@@H](Cc2ccccc2)C(N)=O)C(C)C)NC(=O)[C@H](Cc2c[nH]c4ccccc24)NC(=O)[C@H](CCCCN)NC(=O)[C@H](Cc2c[nH]cn2)NC(=O)[C@H]([C@@H](C)O)NC(=O)[C@H](CCCNC(=N)N)NC(=O)[C@H](CO)NC3=O)NC(=O)[C@H](CCCCN)NC(=O)[C@H](CC(=O)O)NC(=O)[C@H](CC(N)=O)NC(=O)[C@H](CC(=O)O)NC(=O)[C@@H]2CCCN2C1=O` [compound 616] (H-DCLG[Chg]FRKCIPDNDKCCRPNLVCSRTHKWCKYVF-NH2; disulfide 2-17, 9-23, 16-30): the pIC50 in experiment [1] is 7.64; in experiment [2] it was 5.16; in experiment [3], 7.12.
For `CC[C@H](C)[C@@H]1NC(=O)[C@@H]2CSSC[C@@H]3NC(=O)[C@H](C(C)C)NC(=O)[C@H](CC(C)C)NC(=O)[C@H](CC(N)=O)NC(=O)[C@@H]4CCCN4C(=O)[C@H](CCCNC(=N)N)NC(=O)[C@H](CSSC[C@H](NC(=O)[C@@H](N)CC(=O)O)C(=O)N[C@@H](CC(C)C)C(=O)NCC(=O)N[C@@H](CO)C(=O)N[C@@H](Cc4ccccc4)C(=O)N[C@@H](CCCNC(=N)N)C(=O)N[C@@H](CCCCN)C(=O)N2)NC(=O)[C@H](CSSC[C@@H](C(=O)N[C@@H](CCCCN)C(=O)N[C@@H](Cc2ccc(O)cc2)C(=O)N[C@H](C(=O)N[C@@H](Cc2ccccc2)C(N)=O)C(C)C)NC(=O)[C@H](Cc2c[nH]c4ccccc24)NC(=O)[C@H](CCCCN)NC(=O)[C@H](Cc2c[nH]cn2)NC(=O)[C@H]([C@@H](C)O)NC(=O)[C@H](CCCNC(=N)N)NC(=O)[C@H](CO)NC3=O)NC(=O)[C@H](CCCCN)NC(=O)[C@H](CC(=O)O)NC(=O)[C@H](CC(N)=O)NC(=O)[C@H](CC(=O)O)NC(=O)[C@@H]2CCCN2C1=O` [compound 617] (H-DCLGSFRKCIPDNDKCCRPNLVCSRTHKWCKYVF-NH2; disulfide 2-17, 9-23, 16-30) the same measures were 6.12, 4.92 and 5.77.
Taken in the same sequence, the figures for `CC[C@H](C)[C@@H]1NC(=O)[C@@H]2CSSC[C@@H]3NC(=O)[C@H](C(C)C)NC(=O)[C@H](CC(C)C)NC(=O)[C@H](CC(N)=O)NC(=O)[C@@H]4CCCN4C(=O)[C@H](CCCNC(=N)N)NC(=O)[C@H](CSSC[C@H](NC(=O)[C@@H](N)CC(=O)O)C(=O)N[C@@H](CC(C)C)C(=O)NCC(=O)N[C@@H](C(C)C)C(=O)N[C@@H](Cc4ccccc4)C(=O)N[C@@H](CCCNC(=N)N)C(=O)N[C@@H](CCCCN)C(=O)N2)NC(=O)[C@H](CSSC[C@@H](C(=O)N[C@@H](CCCCN)C(=O)N[C@@H](Cc2ccc(O)cc2)C(=O)N[C@H](C(=O)N[C@@H](Cc2ccccc2)C(N)=O)C(C)C)NC(=O)[C@H](Cc2c[nH]c4ccccc24)NC(=O)[C@H](CCCCN)NC(=O)[C@H](Cc2c[nH]cn2)NC(=O)[C@H]([C@@H](C)O)NC(=O)[C@H](CCCNC(=N)N)NC(=O)[C@H](CO)NC3=O)NC(=O)[C@H](CCCCN)NC(=O)[C@H](CC(=O)O)NC(=O)[C@H](CC(N)=O)NC(=O)[C@H](CC(=O)O)NC(=O)[C@@H]2CCCN2C1=O` [compound 618] (H-DCLGVFRKCIPDNDKCCRPNLVCSRTHKWCKYVF-NH2; disulfide 2-17, 9-23, 16-30) were 6.92, 5.03 and 7.00.
On to `CC[C@H](C)[C@@H]1NC(=O)[C@@H]2CSSC[C@@H]3NC(=O)[C@H](C(C)C)NC(=O)[C@H](CC(C)C)NC(=O)[C@H](CC(N)=O)NC(=O)[C@@H]4CCCN4C(=O)[C@H](CCCNC(=N)N)NC(=O)[C@H](CSSC[C@H](NC(=O)[C@@H](N)CC(=O)O)C(=O)N[C@@H](CC(C)C)C(=O)NCC(=O)N[C@@H](Cc4ccc(C(=O)c5ccccc5)cc4)C(=O)N[C@@H](Cc4ccccc4)C(=O)N[C@@H](CCCNC(=N)N)C(=O)N[C@@H](CCCCN)C(=O)N2)NC(=O)[C@H](CSSC[C@@H](C(=O)N[C@@H](CCCCN)C(=O)N[C@@H](Cc2ccc(O)cc2)C(=O)N[C@H](C(=O)N[C@@H](Cc2ccccc2)C(N)=O)C(C)C)NC(=O)[C@H](Cc2c[nH]c4ccccc24)NC(=O)[C@H](CCCCN)NC(=O)[C@H](Cc2c[nH]cn2)NC(=O)[C@H]([C@@H](C)O)NC(=O)[C@H](CCCNC(=N)N)NC(=O)[C@H](CO)NC3=O)NC(=O)[C@H](CCCCN)NC(=O)[C@H](CC(=O)O)NC(=O)[C@H](CC(N)=O)NC(=O)[C@H](CC(=O)O)NC(=O)[C@@H]2CCCN2C1=O` [compound 619] (H-DCLG[Bpa]FRKCIPDNDKCCRPNLVCSRTHKWCKYVF-NH2; disulfide 2-17, 9-23, 16-30), for which the pIC50 in experiment [1] is 6.85; in experiment [2] it was 5.11; in experiment [3], 7.38.
As to `CC[C@H](C)[C@@H]1NC(=O)[C@@H]2CSSC[C@@H]3NC(=O)[C@H](C(C)C)NC(=O)[C@H](CC(C)C)NC(=O)[C@H](CC(N)=O)NC(=O)[C@@H]4CCCN4C(=O)[C@H](CCCNC(=N)N)NC(=O)[C@H](CSSC[C@H](NC(=O)[C@@H](N)CC(=O)O)C(=O)N[C@@H](CC(C)C)C(=O)NCC(=O)N[C@@H](Cc4ccc(OC)c(OC)c4)C(=O)N[C@@H](Cc4ccccc4)C(=O)N[C@@H](CCCNC(=N)N)C(=O)N[C@@H](CCCCN)C(=O)N2)NC(=O)[C@H](CSSC[C@@H](C(=O)N[C@@H](CCCCN)C(=O)N[C@@H](Cc2ccc(O)cc2)C(=O)N[C@H](C(=O)N[C@@H](Cc2ccccc2)C(N)=O)C(C)C)NC(=O)[C@H](Cc2c[nH]c4ccccc24)NC(=O)[C@H](CCCCN)NC(=O)[C@H](Cc2c[nH]cn2)NC(=O)[C@H]([C@@H](C)O)NC(=O)[C@H](CCCNC(=N)N)NC(=O)[C@H](CO)NC3=O)NC(=O)[C@H](CCCCN)NC(=O)[C@H](CC(=O)O)NC(=O)[C@H](CC(N)=O)NC(=O)[C@H](CC(=O)O)NC(=O)[C@@H]2CCCN2C1=O` [compound 620] (H-DCLG[Phe(3,4-(OMe)2)]FRKCIPDNDKCCRPNLVCSRTHKWCKYVF-NH2; disulfide 2-17, 9-23, 16-30), the pIC50 in experiment [1] is 6.19; in experiment [2], 4.98; in experiment [3] it was 6.00.
For `CC[C@H](C)[C@@H]1NC(=O)[C@@H]2CSSC[C@@H]3NC(=O)[C@H](C(C)C)NC(=O)[C@H](CC(C)C)NC(=O)[C@H](CC(N)=O)NC(=O)[C@@H]4CCCN4C(=O)[C@H](CCCNC(=N)N)NC(=O)[C@H](CSSC[C@H](NC(=O)[C@@H](N)CC(=O)O)C(=O)N[C@@H](CC(C)C)C(=O)NCC(=O)N[C@@H](Cc4ccc(Cl)c(Cl)c4)C(=O)N[C@@H](Cc4ccccc4)C(=O)N[C@@H](CCCNC(=N)N)C(=O)N[C@@H](CCCCN)C(=O)N2)NC(=O)[C@H](CSSC[C@@H](C(=O)N[C@@H](CCCCN)C(=O)N[C@@H](Cc2ccc(O)cc2)C(=O)N[C@H](C(=O)N[C@@H](Cc2ccccc2)C(N)=O)C(C)C)NC(=O)[C@H](Cc2c[nH]c4ccccc24)NC(=O)[C@H](CCCCN)NC(=O)[C@H](Cc2c[nH]cn2)NC(=O)[C@H]([C@@H](C)O)NC(=O)[C@H](CCCNC(=N)N)NC(=O)[C@H](CO)NC3=O)NC(=O)[C@H](CCCCN)NC(=O)[C@H](CC(=O)O)NC(=O)[C@H](CC(N)=O)NC(=O)[C@H](CC(=O)O)NC(=O)[C@@H]2CCCN2C1=O` [compound 621] (H-DCLG[Phe(3,4-Cl2)]FRKCIPDNDKCCRPNLVCSRTHKWCKYVF-NH2; disulfide 2-17, 9-23, 16-30) the same measures were 7.32, 5.39 and 8.30.
